In the supplement of paper PMC13207355:
Structures can show the parent of a compound that is named as a salt.

Columns and labels:
Conditions in all cases: exposure time: 72 h
[1] = tested on: FT3469 (normal neural stem cell line); assay: surviving fraction (nuclei count normalised to DMSO); higher = more cells surviving (less toxic)
[2] = tested on: E57 (patient-derived glioblastoma stem cells of mesenchymal subtype); assay: as above
[3] = tested on: E31 (patient-derived glioblastoma stem cells of proneural subtype); assay: as above
[4] = tested on: E34 (patient-derived glioblastoma stem cells of proneural subtype); assay: as above
[5] = tested on: E28 (patient-derived glioblastoma stem cells of classical subtype); assay: as above
[6] = tested on: E21 (patient-derived glioblastoma stem cells of mesenchymal subtype); assay: as above
[7] = tested on: E13 (patient-derived glioblastoma stem cells of classical subtype); assay: as above
[8] = tested on: FT3469; assay: phenotypic distance (Euclidean, principal components) from DMSO controls (arbitrary units); higher = stronger morphological change
[9] = tested on: E57; assay: as above
[10] = tested on: E31; assay: as above
[11] = tested on: E34; assay: as above
[12] = tested on: E28; assay: as above
[13] = tested on: E21; assay: as above
[14] = tested on: E13; assay: as above
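For phenotypic distance (Euclidean, principal components) from DMSO controls in this document: cell Painting imaging in 384-well plates, CellProfiler features reduced to at least 20 principal components, Euclidean distance versus same-plate DMSO vehicle wells (0.1% v/v), median over six images per well.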
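For surviving fraction (nuclei count normalised to DMSO) in this document: nuclei counted by high-content imaging of Hoechst-stained cells in laminin-coated 384-well plates, relative to 0.1% DMSO vehicle wells, with staurosporine as cell-death control.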

**Q.** How did the surviving fraction ([1]; 4.1 nM) turn out when `CN(C)CCN(Cc1ccc(Cl)cc1)c1ccccn1` [Chloropyramine hydrochloride] was run?
**A.** 0.774

**Q.** What about the surviving fraction ([1]; 12.3 nM) of the same compound?
**A.** 1.01

**Q.** What about the surviving fraction ([1]; 37 nM) of the same compound?
**A.** 0.947

**Q.** And the surviving fraction ([1]; 111.1 nM)?
**A.** 0.867

**Q.** What about the surviving fraction ([1]; 333.3 nM) of the same compound?
**A.** 0.758

**Q.** What about the surviving fraction ([1]; 1000 nM) of the same compound?
**A.** 0.878

**Q.** What about the surviving fraction ([1]; 3000 nM) of the same compound?
**A.** 0.928

**Q.** And the surviving fraction ([2]; 4.1 nM)?
**A.** 0.916

**Q.** What about the surviving fraction ([2]; 12.3 nM) of the same compound?
**A.** 0.978

**Q.** And the surviving fraction ([2]; 37 nM)?
**A.** 0.96

**Q.** What about the surviving fraction ([2]; 111.1 nM) of the same compound?
**A.** 0.936

**Q.** What about the surviving fraction ([2]; 333.3 nM) of the same compound?
**A.** 0.986

**Q.** And the surviving fraction ([2]; 1000 nM)?
**A.** 1.02

**Q.** And the surviving fraction ([2]; 3000 nM)?
**A.** 1.03

**Q.** And the surviving fraction ([3]; 4.1 nM)?
**A.** 0.968

**Q.** And the surviving fraction ([3]; 12.3 nM)?
**A.** 0.91

**Q.** What about the surviving fraction ([3]; 37 nM) of the same compound?
**A.** 0.853

**Q.** And the surviving fraction ([3]; 111.1 nM)?
**A.** 0.919

**Q.** What about the surviving fraction ([3]; 333.3 nM) of the same compound?
**A.** 0.897

**Q.** And the surviving fraction ([3]; 1000 nM)?
**A.** 0.946

**Q.** And the surviving fraction ([3]; 3000 nM)?
**A.** 0.856

**Q.** And the surviving fraction ([4]; 4.1 nM)?
**A.** 0.981

**Q.** What about the surviving fraction ([4]; 12.3 nM) of the same compound?
**A.** 0.964

**Q.** What about the surviving fraction ([4]; 37 nM) of the same compound?
**A.** 1.06

**Q.** And the surviving fraction ([4]; 111.1 nM)?
**A.** 0.866

**Q.** And the surviving fraction ([4]; 333.3 nM)?
**A.** 0.942

**Q.** What about the surviving fraction ([4]; 1000 nM) of the same compound?
**A.** 1.14

**Q.** And the surviving fraction ([4]; 3000 nM)?
**A.** 1

**Q.** And the surviving fraction ([5]; 4.1 nM)?
**A.** 1.1

**Q.** What about the surviving fraction ([5]; 12.3 nM) of the same compound?
**A.** 0.995

**Q.** And the surviving fraction ([5]; 37 nM)?
**A.** 1.11

**Q.** And the surviving fraction ([5]; 111.1 nM)?
**A.** 0.91

**Q.** And the surviving fraction ([5]; 333.3 nM)?
**A.** 1.03

**Q.** What about the surviving fraction ([5]; 1000 nM) of the same compound?
**A.** 1.19

**Q.** What about the surviving fraction ([5]; 3000 nM) of the same compound?
**A.** 1.13

**Q.** And the surviving fraction ([6]; 4.1 nM)?
**A.** 0.942

**Q.** And the surviving fraction ([6]; 12.3 nM)?
**A.** 1.03

**Q.** And the surviving fraction ([6]; 37 nM)?
**A.** 0.87

**Q.** And the surviving fraction ([6]; 111.1 nM)?
**A.** 0.922

**Q.** And the surviving fraction ([6]; 333.3 nM)?
**A.** 0.993

**Q.** And the surviving fraction ([6]; 1000 nM)?
**A.** 1.12

**Q.** What about the surviving fraction ([6]; 3000 nM) of the same compound?
**A.** 1.08

**Q.** What about the surviving fraction ([7]; 4.1 nM) of the same compound?
**A.** 0.918

**Q.** And the surviving fraction ([7]; 12.3 nM)?
**A.** 0.933

**Q.** What about the surviving fraction ([7]; 37 nM) of the same compound?
**A.** 0.988

**Q.** What about the surviving fraction ([7]; 111.1 nM) of the same compound?
**A.** 0.881

**Q.** And the surviving fraction ([7]; 333.3 nM)?
**A.** 0.847

**Q.** And the surviving fraction ([7]; 1000 nM)?
**A.** 0.953

**Q.** What about the surviving fraction ([7]; 3000 nM) of the same compound?
**A.** 0.933

**Q.** What about the phenotypic distance ([8]; 4.1 nM) of the same compound?
**A.** 1.06

**Q.** What about the phenotypic distance ([8]; 12.3 nM) of the same compound?
**A.** 0.715

**Q.** What about the phenotypic distance ([8]; 37 nM) of the same compound?
**A.** 0.697

**Q.** And the phenotypic distance ([8]; 111.1 nM)?
**A.** 0.656

**Q.** And the phenotypic distance ([8]; 333.3 nM)?
**A.** 0.847

**Q.** What about the phenotypic distance ([8]; 1000 nM) of the same compound?
**A.** 0.895

**Q.** What about the phenotypic distance ([8]; 3000 nM) of the same compound?
**A.** 0.975

**Q.** What about the phenotypic distance ([9]; 4.1 nM) of the same compound?
**A.** 0.61

**Q.** What about the phenotypic distance ([9]; 12.3 nM) of the same compound?
**A.** 0.445

**Q.** And the phenotypic distance ([9]; 37 nM)?
**A.** 0.59

**Q.** And the phenotypic distance ([9]; 111.1 nM)?
**A.** 0.607

**Q.** And the phenotypic distance ([9]; 333.3 nM)?
**A.** 0.699

**Q.** And the phenotypic distance ([9]; 1000 nM)?
**A.** 0.663

**Q.** What about the phenotypic distance ([9]; 3000 nM) of the same compound?
**A.** 0.75

**Q.** What about the phenotypic distance ([10]; 4.1 nM) of the same compound?
**A.** 1.06

**Q.** And the phenotypic distance ([10]; 12.3 nM)?
**A.** 0.615

**Q.** And the phenotypic distance ([10]; 37 nM)?
**A.** 0.841

**Q.** What about the phenotypic distance ([10]; 111.1 nM) of the same compound?
**A.** 0.689

**Q.** What about the phenotypic distance ([10]; 333.3 nM) of the same compound?
**A.** 0.862

**Q.** What about the phenotypic distance ([10]; 1000 nM) of the same compound?
**A.** 0.815

**Q.** What about the phenotypic distance ([10]; 3000 nM) of the same compound?
**A.** 0.985

**Q.** And the phenotypic distance ([11]; 4.1 nM)?
**A.** 1.29

**Q.** And the phenotypic distance ([11]; 12.3 nM)?
**A.** 1.02

**Q.** And the phenotypic distance ([11]; 37 nM)?
**A.** 1.15

**Q.** And the phenotypic distance ([11]; 111.1 nM)?
**A.** 2.53

**Q.** What about the phenotypic distance ([11]; 333.3 nM) of the same compound?
**A.** 0.82

**Q.** What about the phenotypic distance ([11]; 1000 nM) of the same compound?
**A.** 0.757

**Q.** What about the phenotypic distance ([11]; 3000 nM) of the same compound?
**A.** 1.2

**Q.** And the phenotypic distance ([12]; 4.1 nM)?
**A.** 1.02

**Q.** What about the phenotypic distance ([12]; 12.3 nM) of the same compound?
**A.** 1.04

**Q.** What about the phenotypic distance ([12]; 37 nM) of the same compound?
**A.** 0.979

**Q.** What about the phenotypic distance ([12]; 111.1 nM) of the same compound?
**A.** 0.796

**Q.** And the phenotypic distance ([12]; 333.3 nM)?
**A.** 1.02

**Q.** And the phenotypic distance ([12]; 1000 nM)?
**A.** 0.889

**Q.** What about the phenotypic distance ([12]; 3000 nM) of the same compound?
**A.** 0.936

**Q.** And the phenotypic distance ([13]; 4.1 nM)?
**A.** 0.655

**Q.** And the phenotypic distance ([13]; 12.3 nM)?
**A.** 0.862

**Q.** And the phenotypic distance ([13]; 37 nM)?
**A.** 0.953

**Q.** What about the phenotypic distance ([13]; 111.1 nM) of the same compound?
**A.** 0.778

**Q.** And the phenotypic distance ([13]; 333.3 nM)?
**A.** 0.678

**Q.** What about the phenotypic distance ([13]; 1000 nM) of the same compound?
**A.** 1.38

**Q.** And the phenotypic distance ([13]; 3000 nM)?
**A.** 1.62

**Q.** And the phenotypic distance ([14]; 4.1 nM)?
**A.** 0.601

**Q.** And the phenotypic distance ([14]; 12.3 nM)?
**A.** 0.447

**Q.** What about the phenotypic distance ([14]; 37 nM) of the same compound?
**A.** 0.683

**Q.** What about the phenotypic distance ([14]; 111.1 nM) of the same compound?
**A.** 0.455

**Q.** And the phenotypic distance ([14]; 333.3 nM)?
**A.** 0.745

**Q.** And the phenotypic distance ([14]; 1000 nM)?
**A.** 1.13

**Q.** And the phenotypic distance ([14]; 3000 nM)?
**A.** 0.879
